Results from patent US8557800B2, “Sphingosine kinase inhibitors” (Apogee Biotechnology Corporation, priority 2005, dated 2013).

Key:
1025LU (melanoma) = experiment: Human tumor cell line panel, sulforhodamine B; format: cell-based; conditions: 48 hours, mean ± sd
Caco-2 (colon) = experiment: Human tumor cell line panel, sulforhodamine B; format: cell-based; conditions: 48 hours, mean ± sd
DU145 (prostate) = experiment: Human tumor cell line panel, sulforhodamine B; format: cell-based; conditions: DU-145, 48 hours, mean ± sd
[1] = system: mouse JC mammary adenocarcimona cell line growing subcutaneously in Balb/c mice
Experimental: The antitumor activity of the representative SK inhibitors were evaluated using a syngeneic tumor model that uses the mouse JC mammary adenocarcimona cell line growing subcutaneously in immunocompetent Balb/c mice (Lee et al., 2003, Oncol Res 14: 49).
In FIG. 1, Balb/c mice, 6-8 weeks old, were injected subcutaneously with 10^6 JC cells suspended in phosphate-buffered saline. The SK inhibitors Compounds 62 and 57 were dissolved in PEG400 and administered to mice every-other day at a dose of 100 mg/kg. Body weights and tumor volumes were monitored daily. In FIG. 1, tumor growth is expressed as the tumor volume relative to day 1 for each animal.

[2] = system: retinal vascular permeability in diabetic rats; experiment: Diabetic retinopathy, streptozotocin rats; format: in vivo, rat; conditions: 25 or 75 mg/kg ip 5 days per week, Day 45 to Day 87
Experimental: Male Sprague-Dawley rats weighing 150-175 g were used. Diabetes was produced by intraperitoneal injection of streptozotocin (65 mg/kg in citrate buffer) after overnight fasting. Sham-injected non-diabetic animals were also carried as controls. Blood glucose was measured three days post-injection and animals with blood glucose over 250 mg/dL were used as diabetic rats for the study. Blood glucose levels and body weights were monitored weekly throughout the study. On Day 45, retinal vascular permeability was measured in a group of control and diabetic rats (Antonetti et al., 1998, Diabetes 47: 1953, Barber et al., 2005, Invest Ophthalmol Vis Sci 46: 2210). […] Sections were dewaxed and viewed with an Olympus OM-2 fluorescence microscope fitted with a Sony CLD video camera. Fluorescence intensities of digital images were measured using Leica Confocal Software (Version 2.61, build 1538, LCS Lite, 2004). The average retinal intensity for each eye was then normalized to non-injected controls analyzed in the same manner and to the plasma fluorescence of the animal. Through serial sectioning of the eye, this technique enables quantification of varied vascular permeability in the retina (Antonetti et al., 1998, Diabetes 47: 1953, Barber et al., 2005, Ibid.). […]

NFκB = experiment: TNFα-induced NFκB reporter cell line; format: cell-based; conditions: fibroblasts, TNFα 6 hours
Experimental: FIG. 5. Inhibition of TNFα-induced activation of NFκB by Compound 62. Fibroblasts transfected with a TNFα-responsive promoter linked to luciferase were treated with the indicated concentrations of Compound 62 and then treated with TNFα for 6 hours. The amount of luciferase expressed by the cells was then measured by luminescence. Values represent the mean±sd luciferase activity in triplicate samples in a typical experiment.
The excellent aqueous solubility of Compound 62 allowed it to be evaluated in an NFκB reporter cell line (FIG. 5). Fibroblasts transfected with an NFκB response element linked to luciferase produce high levels of luciferase upon exposure to TNFα.

ICAM-1 = experiment: TNFα-induced adhesion molecule expression, Western analysis; format: cell-based; conditions: human endothelial cells, TNFα 100 ng/mL 6 hours, 25 μM compound
Experimental: (§1) Like endothelial cells in the body, HUVECs will proliferate in response to several growth factors, and will respond to inflammatory cytokines such as TNFα and IL-1β. Western analyses were conducted with human endothelial cells to evaluate the effects of the SK inhibitors on signaling proteins known to be regulated by TNFα. In these experiments, the cells were serum-starved for 24 hours and then exposed to TNFα (100 ng/mL) for 6 hours. Cell lysates from treated cells were assayed for the adhesion molecules ICAM-1 and VCAM-1. TNFα caused marked increases in the expression levels of adhesion proteins involved in leukocyte recruitment, including ICAM-1 and VCAM-1.

VCAM-1 = experiment: as above; format: cell-based; conditions: human endothelial cells, TNFα 100 ng/mL 6 hours, 25 μM compound
Experimental: as §1

[3] = system: C57BL/6 mice, DSS model of IBD; experiment: Acute DSS-colitis model; format: in vivo, mouse; conditions: 2% DSS, 50 mg/kg oral daily
Experimental: We have conducted experiments with SK inhibitors using the dextran sulfate sodium (DSS) model of IBD. In these experiments, male C57BL/6 mice were provided with standard rodent diet and water ad libitum. After their acclimation, the animals were randomly divided into groups of 5 or 6 for DSS (40,000 MW from ICN Biomedicals, Inc., Aurora, Ohio)—and drug-treatment. The SK inhibitors were dissolved in PEG400, and given once daily by oral gavage in a volume of 0.1 mL per dose. Dipentum, an FDA-approved anti-colitis drug whose active ingredient, olsalazine, is converted to 5-aminosalicylic acid in vivo, was used as a positive control. The mice were given normal drinking water or 2% DSS and treated orally with an SK inhibitor or Dipentum at a dose of 50 mk/kg daily. The body weight of each animal was measured each day, and the Disease Activity Index (DAI) was scored for each animal on Days 4-6. On Day 6, the animals were sacrificed by cervical dislocation and the entire colon was removed and measured to the nearest 0.1 cm. Portions of the colons were then fixed, sectioned and their histologies were assessed on a blinded basis to determine their Histology Score. Other portions of the colons were used for biochemical analyses of inflammation markers.

O=C(NCc1ccncc1)C12CC3CC(C1)CC(c1ccc(Cl)cc1)(C3)C2 [Compound 62, 3-(4-Chloro-phenyl)-adamantane-1-carboxylic acid (pyridin-4-ylmethyl)-amide]
IC50 (1025LU (melanoma)): 33.7 ± 2.7 µM
IC50 (Caco-2 (colon)): 11.8 ± 5.6 µM
IC50 (DU145 (prostate)): 21.9 ± 1.5 µM
inhibition of tumor growth relative to controls ([1]; 100 mg/kg oral every-other day in PEG400): 69%
In vivo activity ([1]; JC tumor model, intraperitoneal (ip) or oral (po) administration): active - ip and po
toxicity to the mice in dose-response study ([1]; mouse, in vivo): No toxicity
FITC-BSA leakage into the retina vs untreated diabetic rats [2]: substantially reduced
activation of NFκB by TNFα (luciferase) (NFκB): dose-dependently suppressed
TNFα induction of ICAM-1 (ICAM-1): completely abrogated
TNFα induction of VCAM-1 (VCAM-1): completely abrogated
increase in colon myeloperoxidase (MPO) activity [3]: markedly attenuated
colon length ([3]; Day 6): intermediate length
histological examination of colon sections ([3]; Day 6): no or mild crypt damage, no or low levels of inflammatory cell infiltration and no edema in the submucosa
Disease Activity Index (intensity of IBD manifestations) ([3]; Days 4-6): reduced
colonic S1P levels vs DSS-alone ([3]; LC-MS/MS): markedly lower
